Columns and labels:
fa/fa rats [1] = assay: Activities of liver enzymes (ALT, AST, GLDH) in the plasma of fa/fa rats (liver toxicity); format: in vivo, rat; conditions: for ALT [U/I], MW ± SEM / AST [U/I], MW ± SEM: plasma, fenofibrate 100 mg/kg twice a day (eight times)
From the text: The horizontal line in the diagram indicates three times the level in the control group and is interpreted as the threshold value for a clearly toxic side effect.).

fa/fa rats [2] = assay: Hepatic steatosis: lipid content (triglycerides, free fatty acids) in the liver of fa/fa rats; format: in vivo, rat; conditions: Example B; female fa/fa rats 38 weeks old; oral; MTP inhibitor 0.3 mg/kg once a day (four times); livers removed 24 hours after last dose
Protocol: In addition, the liver may be removed in order to determine the hepatic steatosis by measuring the lipid content (triglycerides, free fatty acids, cholesterol) in this organ. To do this, 200 mg of liver are homogenised after the addition of 2 ml of isopropanol and extracted for 10 min with shaking. The extract is centrifuged for 10 min at 4° C. and 4000 rpm and one aliquot of the supernatant is used to determine the lipid parameters. The lipids in the liver are measured using commercially available test kits following the manufacturer's instructions (for triglycerides: Triglycerid-Duo S made by BIOMED Labordiagnostik GmbH, Oberschleiβheim; for cholesterol: Cholesterin-Duo S made by BIOMED Labordiagnostik GmbH, Oberschleiβheim; for free fatty acids: NEFA C made by Wako Chemicals GmbH, Neuss).
The MTP inhibitor leads to an increase in the triglycerides and the free fatty acids in the liver (FIGS. 3a and 3b). By combining it with the fibrate, the lipid accumulation caused by the MTP inhibitor is lowered by about 50% (triglycerides in the liver) or by about 80% (free fatty acids in the liver).

fa/fa rats [3] = assay: Cholesterol and triglycerides in the plasma of hyperlipaemic fa/fa rats after oral treatment; conditions: for lowering of cholesterol in the plasma compared with the control group / lowering of triglycerides in the plasma compared with the control group: Example A, female fa/fa rats 33 weeks old, MTP inhibitor 1 mg/kg once a day (four times), bezafibrate 100 mg/kg twice a day (eight times), blood 24 hours after last MTP inhibitor dose or 15 hours after last fibrate dose
Protocol: The effectiveness of the combination of an MTP inhibitor with a fibrate and the effect on hepatic steatosis and liver toxicity can be tested in vivo as follows. Hyperlipaemic rats (e.g. of the rat strain fa/fa) are given the active substances as a suspension in 0.45% NaCl and 5% polyethyleneglycol 400 by oral route using an oesophageal tube (5 ml/kg of body weight). The substances may be given once or several times a day for a period of 4 days, or alternatively over a longer period. The day after the last dose, blood samples are taken by puncturing the retroorbital venous plexus and plasma is prepared. The concentrations of cholesterol and triglycerides in the plasma and the activities of the liver enzymes (e.g. ALT, AST, GLDH) are determined by well-known methods of clinical chemistry. These substrates and enzymes in the plasma may be measured for example with a HITACHI 917 Automatic Analyzer using reagents supplied by Roche Diagnostics (Mannheim) in accordance with the following procedures laid down by Roche Diagnostics:
cholesterol: BM/HITACHI 917, Boehringer Mannheim System No. 1 491 458
triglycerides: BM/HITACHI 917, Boehringer Mannheim System No. 1 730 711.
Female fa/fa rats 33 weeks old were either treated four times with an MTP inhibitor (given orally once a day at 7 a.m.) or treated eight times with a fibrate (given twice a day by oral route at 7 a.m. and 4 p.m.) A third group were given both the MTP inhibitor and the fibrate. The MTP inhibitor was 9-[4-[4-[2-(4-trifluoromethylphenyl)benzoylamino]piperidin-1-yl]butyl]-N-(2,2,2-trifluoro-ethyl)-9H-fluorene-9-carboxamide in a dosage of 1 mg/kg. The fibrate was bezafibrate in a dosage of 100 mg/kg. 24 hours after the last dose of the MTP inhibitor or 15 hours after the last dose of the fibrate blood samples were taken from the animals and the cholesterol, triglycerides and liver enzymes in the plasma were measured.
Male fa/fa rats 32 weeks old were either treated four times with an MTP inhibitor (given orally once a day between about 7 and 8 a.m.) or treated eight times with a fibrate (given twice a day by oral route between about 7 and 8 a.m. and at 4 p.m.) Another group were given both the MTP inhibitor and the fibrate. […] The fibrate was fenofibrate in a dosage of 100 mg/kg. 24 hours after the last dose of the MTP inhibitor or 15 hours after the last dose of fenofibrate, blood was taken from the animals and the levels of cholesterol, triglycerides and liver enzymes in the plasma were measured.
Male fa/fa rats 33 weeks old were either treated four times with an MTP inhibitor (given orally once a day between about 7 and 8 a.m.) or treated eight times with a fibrate (given twice a day by oral route between about 7 and 8 a.m. and at 4 p.m.) Another group were given both the MTP inhibitor and the fibrate. […] The fibrate was fenofibrate in a dosage of 100 mg/kg. 24 hours after the last dose of the MTP inhibitor or 15 hours after the last dose of fenofibrate, blood was taken from the animals and the levels of cholesterol, triglycerides and liver enzymes in the plasma were measured.

[4] = Example A, female fa/fa rats 33 weeks old, oral, MTP inhibitor 1 mg/kg once a day (four times)
[5] = Example D, male fa/fa rats 33 weeks old, compound (a) 3 mg/kg oral once a day
[6] = Example D, male fa/fa rats 33 weeks old, oral, compound (a) 3 mg/kg once a day (four times)
[7] = Example D, male fa/fa rats 33 weeks old, compound (a) 3 mg/kg once a day, fenofibrate 100 mg/kg twice a day
[8] = Example C, male fa/fa rats 32 weeks old, compound (c) 10 mg/kg oral once a day
[9] = Example C, male fa/fa rats 32 weeks old, oral, compound (c) 10 mg/kg once a day (four times)
[10] = Example C, male fa/fa rats 32 weeks old, compound (c) 10 mg/kg once a day, fenofibrate 100 mg/kg twice a day
[11] = Example D, male fa/fa rats 33 weeks old, fenofibrate 100 mg/kg twice a day

Row | SMILES | lowering of cholesterol in the plasma compared with the control group (fa/fa rats [3]) | lowering of triglycerides in the plasma compared with the control group (fa/fa rats [3]) | ALT [U/I], MW ± SEM (fa/fa rats [1]; [6]) | AST [U/I], MW ± SEM (fa/fa rats [1]; [6]) | ALT [U/I], MW ± SEM (fa/fa rats [1]; [9]) | AST [U/I], MW ± SEM (fa/fa rats [1]; [9]) | reduction of cholesterol in the plasma compared with the control group (fa/fa rats [3]; [10]) | reduction of triglycerides in the plasma compared with the control group (fa/fa rats [3]; [10]) | also measured
1 | O=C(NC1CCN(CCCCC2(C(=O)NCC(F)(F)F)c3ccccc3-c3ccccc32)CC1)c1ccccc1-c1ccc(C(F)(F)F)cc1 [9-[4-[4-[2-(4-trifluoromethylphenyl)benzoylamino]piperidin-1-yl]butyl]-N-(2,2,2-trifluoro-ethyl)-9H-fluorene-9-carboxamide] | 29% | 84% | – | – | – | – | – | – | increase in the ALT activity in the blood plasma compared with the control group (fa/fa rats [1]; [4]): 5.2 fold; increase in the GLDH activity in the blood plasma compared with the control group (fa/fa rats [1]; [4]): 7.7 fold; free fatty acids in the liver (fa/fa rats [2]): increase; triglycerides in the liver (fa/fa rats [2]): increase
2 | Cn1cc(NC(=O)c2ccccc2-c2ccc(C(F)(F)F)cc2)cc1C(=O)NCC#Cc1ccc(-c2ccccc2)cc1 [Compound (a), N-[3-(Biphenyl-4-yl)-prop-2-ynyl]-4-(4′-trifluoromethylbiphenyl-2-carbonylamino)-1-methyl-pyrrole-2-carboxylic acid amide] | – | – | 232.8 ± 67.8 U/I | 218.4 ± 57.1 U/I | – | – | – | – | increase in the activity of ALT in the plasma (fa/fa rats [1]; [5]): 5.1 fold; increase in the activity of AST in the plasma (fa/fa rats [1]; [5]): 6.7 fold; reduction of cholesterol in the plasma compared with the control group (fa/fa rats [3]; [7]): 26%; reduction of triglycerides in the plasma compared with the control group (fa/fa rats [3]; [7]): 76%
3 | Cn1cc(NC(=O)c2ccccc2-c2ccc(C(F)(F)F)cc2)cc1C(=O)NCc1ccc(N2CCC3(CCCCC3)CC2)cc1 [Compound (c), N-[4-(3-Aza-spiro[5.5]undec-3-yl)-phenylmethyl]-4-(4′-trifluoromethylbiphenyl-2-carbonylamino)-1-methyl-pyrrole-2-carboxylic acid amide] | – | – | – | – | 232.9 ± 40.6 U/I | 232.7 ± 34.2 U/I | 58% | 94% | increase in the activity of ALT in the plasma (fa/fa rats [1]; [8]): 3.6 fold; increase in the activity of AST in the plasma (fa/fa rats [1]; [8]): 4.5 fold
4 | CC(C)OC(=O)C(C)(C)Oc1ccc(C(=O)c2ccc(Cl)cc2)cc1 [Fenofibrate, fenofibrate] | – | – | 44.7 ± 5.3 U/I | 33.5 ± 3.7 U/I | 47.0 ± 4.9 U/I | 30.3 ± 2.7 U/I | 15% | 20% | increase of cholesterol in the plasma compared with the control group (fa/fa rats [3]; [11]): 10%; increase of triglycerides in the plasma compared with the control group (fa/fa rats [3]; [11]): 38%
5 | CC(C)(Oc1ccc(CCNC(=O)c2ccc(Cl)cc2)cc1)C(=O)O [bezafibrate] | 47% | 56% | – | – | – | – | – | – | –
